Some results are limits rather than exact numbers.

In the test the target is T1, hUHRF1‐TTD WT (GST‐fused, residues 126–280) (Homo sapiens, UniProt Q96T88).
T1 construct: on previously defined borders (residues 126–280; Rothbart et al., [2012]) was N‐terminally fused to GST; made in house; host or cells: Escherichia coli
T1 sequence (Q96T88 126-280): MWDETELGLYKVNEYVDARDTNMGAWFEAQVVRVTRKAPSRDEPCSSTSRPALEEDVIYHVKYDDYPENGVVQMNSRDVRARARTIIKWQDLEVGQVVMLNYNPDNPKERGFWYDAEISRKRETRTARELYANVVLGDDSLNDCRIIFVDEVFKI
The test can be described thus: Equilibrium peptide binding titration by fluorescence anisotropy (FA), TTD WT. As to the method:
The Tandem Tudor domain of hUHRF1 (UNIPROT Q96T88) on previously defined borders (residues 126–280; Rothbart et al., [2012]) was N‐terminally fused to GST. Mutations were introduced using an updated rolling circle protocol and validated by Sanger sequencing. Proteins were overexpressed in Escherichia coli by induction with 1 mM isopropyl‐β‐D‐thiogalactopyronoside (IPTG) when OD600 reached 0.6–0.8, and the culture was continued overnight at 20°C. The cells were harvested by centrifugation for 30 min, at 4°C and 3781 g. For purification, each pellet was resuspended in 30 mL sonication buffer (500 mM KCl, 20 mM HEPES pH 7.5, 10% v/v glycerol, and 0.2 mM dithiothreitol [DTT]) and sonicated for cell lysis (Q120 Sonicator, Active Motif). After centrifugation for 1 h at 4°C and 45,850 g, the soluble protein was purified using Glutathione Agarose 4B gravitational columns and dialyzed against dialysis buffer (200 mM KCl, 20 mM HEPES, 10% v/v glycerol, pH 7.5, and 0.2 mM DTT). […] Protein concentration was determined spectroscopically by A 280 and purity was verified on SDS‐PAGE.
Equilibrium peptide binding experiments were performed on a Jasco FP‐8300 spectrofluorometer with an automatic polarizer FDP‐837. […] Acquisitions were performed at 23°C with excitation at 493 nm and emission measured at 520 nm, slit width set to 5 nm for both, and multiple accumulations. […]

For the substance “ARTK(me1)QTARK(me2)STGGKAPRKQ-K(FITC) [H3K4me1‐K9me2, FITC‐labeled histone H3 (1-19) peptide with K4me1 and K9me2]”, the “preference for the double‐modified peptide” value (H3K4me1‐K9me2 versus H3K9me2 peptide, FA titrations with GST‐TTD WT (Figure S3a)) is more than 2 fold.
Regarding “ARTK(me1)QTARKSTGGKAPR-K(FITC) [H3K4me1, FITC‐labeled histone H3 (1-17) peptide with K4me1]”, the “binding of TTD WT to the peptide (in words)” value (Supplemental Figure 3B, control data, FA titration) was “weakly”.

Source of the values: PMC10464304, “Refined read‐out: The hUHRF1 Tandem‐Tudor domain prefers binding to histone H3 tails containing K4me1 in the context of H3K9me2/3” (Protein Science : A Publication of the Protein Society, 2023).
